Assays:
Type in all cases: cell-based
A2780 ovarian cells [1] = assay: A2780 Ovarian Cell Proliferation Assay in Lipid Reduced Medium, with Palmitate; conditions: 10% lipid-reduced serum, 25 μM palmitate, 96 h, MTT
Experimental: (§1) The biological assays described below correspond to comparative assays for ovarian cell proliferation.
2500 cells were seeded in a 96-well clear well plate in 200 μL RPM11640 with 10% Fetal Calf Serum (Hyclone), and incubated at 37° C., 5% CO2. Blanks were wells without cells. The next day the culture medium was aspirated and replaced by 160 μL culture medium with 10% Lipid-Reduced Serum (LRS, Hyclone). […] After 96 h incubation, an MTT assay was performed.

A2780 ovarian cells [2] = assay: A2780 Ovarian Cell Proliferation Assay in Lipid Reduced Medium, without Palmitate; conditions: 10% lipid-reduced serum, no palmitate, 96 h, MTT
Experimental: as §1
2500 cells were seeded in a 96-well clear well plate in 200 μL RPM11640 with 10% Fetal Calf Serum (Hyclone), and incubated at 37° C., 5% CO2. Blanks were wells without cells. The next day the culture medium was aspirated and replaced by 160 μL culture medium with 10% Lipid-Reduced Serum (LRS, Hyclone). 20 μL test compound (at concentrations of 30 μM, 10 μM, 3 μM, 1 μM, 0.30 μM, 0.10 μM, 0.03 μM and 0.01 μM)/DMSO dilution followed by 20 μL ethanol-BSA solution were added to a final concentrations of 0.2% DMSO, 0.2% fatty-acid-free BSA, 0.25% ethanol. After 96 h incubation an MTT assay was performed.
Raw data generated by the instrument were normalized to % Controlmin values, which were calculated as: % Controlmin=100*(x−mLC)/(mHC−mLC)
where mLC and mHC were the means of the low control wells and high control wells on the plate, after manual exclusion of outliers. A plot of Controlmin versus test compound concentration was fitted to a 4-parameter logistic curve using a non-linear least squares regression method.

[3] = tested on: PC-3M-Luc-C6 prostate cells; assay: In Vitro PC-3M-Luc-C6 Prostate Cell Proliferation Assay in Lipid Reduced Medium; conditions: 10% lipid reduced serum, 96 h, ATP-glow
Experimental: PC-3M-Luc-C6 prostate cells were obtained from Xenogen Corporation. […] The cells were passaged twice a week.
The next day 10 μl test compound/DMSO diluted in medium was added (3E-5M, 1E-5M, 3E-6M, 1E-6M, 3E-7M, 1E-7M, 3E-8M, 1E-8M final concentration). Compounds were tested in duplicate. After 96 h incubation at 37° C., 5% CO2 25 μl ATP-glow mix was added. The plate was incubated for 30 min at 37° C. and luminescence was measured with the Envision.
(§2) pIC50 values were calculated as follows. Raw data generated by the instruments were normalized to % Controlmin values, which were calculated as: % Controlmin=100*(x−mLC)/(mHC−mLC),
(§3) where mLC and mHC are the means of the low control wells and high control wells on the plate, after manual exclusion of outliers. The relation between the % Controlmin values and concentration was fitted to a 4-parameter logistic curve using a non-linear least squares regression method to determine the pIC50 value. Outlying data points were excluded manually to get a correct fit. […] The IC50 parameter was always determined by non-linear regression, but one or more of the other parameters may have been held fixed on a relevant input value, such as 0 for the bottom values.

[4] = tested on: LNCaP_Vancouver prostate cells; assay: In Vitro LNCaP Vancouver Prostate Cell Proliferation Assay in Lipid Reduced Medium; conditions: 10% lipid reduced serum, 96 h, ATP-glow
Experimental: LNCaP_Vancouver prostate cells were obtained from the Vancouver Prostate Cancer Centre.
Compounds were tested in duplicate. After 96 h incubation at 37° C., 5% CO2 25 μl ATP-glow mix was added. The plate was incubated for 30 min at 37° C. and luminescence was measured with the Envision.
as §2, §3

pIC50 With Palmitate (A2780 ovarian cells [1]): <5
pIC50 Without Palmitate (A2780 ovarian cells [2]): 7.19
pIC50 PC-3M-Luc-C6 prostate cell [3]: 7.04
pIC50 LNCaP_Vancouver prostate cell [4]: 6.87
Structure (SMILES): Cn1ncc2cc(-c3ccc(C4=NC(C)(C)C(=O)N4CC4CN(C(=O)C5CC5)C4)c(F)c3)ccc21 [Compound 69, 1-((1-(cyclopropanecarbonyl)azetidin-3-yl)methyl)-2-(2-fluoro-4-(1-methyl-1H-indazol-5-yl)phenyl)-4,4-dimethyl-1H-imidazol-5(4H)-one]

— patent US9718813B2, “Imidazolin-5-one derivative useful as FASN inhibitors for the treatment of cancer” (Janssen Pharmaceutica, NV, priority 2013, dated 2017)
